From BindingDB's records for doi:10.7270/Q24J0CNF (Chevron Chemical, 1990)

Target: Glutamine synthetase (Homo sapiens, UniProt P15104)
Assay: Enzyme Assay
Conditions: pH 7
Procedure: The enzyme was assayed at pH 7.0 using the pyruvate kinase/lactate dehydroenase coupling system.

Sequence of Glutamine synthetase (P15104 whole entry): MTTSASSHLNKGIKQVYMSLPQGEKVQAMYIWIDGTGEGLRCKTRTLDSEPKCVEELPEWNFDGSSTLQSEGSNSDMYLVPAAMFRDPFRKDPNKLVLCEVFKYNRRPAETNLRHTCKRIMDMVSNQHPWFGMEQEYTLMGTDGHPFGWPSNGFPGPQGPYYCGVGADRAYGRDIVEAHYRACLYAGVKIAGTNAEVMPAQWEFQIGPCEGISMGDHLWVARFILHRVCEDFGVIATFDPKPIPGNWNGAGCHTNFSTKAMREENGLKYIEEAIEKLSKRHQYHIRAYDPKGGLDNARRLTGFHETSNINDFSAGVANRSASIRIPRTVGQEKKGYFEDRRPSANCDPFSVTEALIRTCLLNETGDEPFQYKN

Compound	Ki
CP(=O)(O)CCC(N)C(=O)O (stereo not drawn) [Phosphinothricin analog, 1 (L Isomer)]	0.22 nM
CC(CC(N)C(=O)O)P(C)(=O)O (configuration not stated) [Phosphinothricin analog, 2 (D,L mixture)]	140 nM
